From US10787413B2, “Derivatives of curcuminoids and use thereof as an anticancer agent” (CHINA MEDICAL UNIVERSITY, priority 2016, dated 2020)

Columns and labels:
MDA-MB-231 cells [1] = assay: cDNA microarray; type: cell-based, human
Method: The cells were incubated with or without 21a. After exposure, cell pellets were collected, and the total RNA from each treatment was purified using the Qiagen RNeasy Mini Kit (Qiagen, Valencia, Calif., USA). The RNA purity was determined to check the quality at 260/280 nm using a NanoDrop 1000 Spectrophotometer (Thermo Fisher Scientific, Wilmington, Del., USA). mRNA was amplified and labeled using the Gene-Chip WT Sense Target Labeling and Control Reagents kit (Affymetrix, Santa Clara, Calif., USA) for expression analysis. The synthesized cDNA was labeled with fluorescence and then hybridized for 17 h using AffymetrixGeneChip Human Gene 1.0 ST array (Affymetrix) to determine microarray hybridization following the manufacturer's protocols. The arrays were subsequently washed using Fluidics Station 450 (Affymetrix), stained with streptavidin-phycoerythrin (Gene-Chip Hybridization, Wash, and Stain kit, Affymetrix), and scanned on a GeneChip Scanner 3000 (Affymetrix). The localized concentrations of fluorescent molecules were quantitated and analyzed using Expression Console Software (Affymetrix) with default RMA parameters as previously described (Chang et al. 2012; Liu et al. 2013). […]

MDA-MB-231 cells [2] = assay: Cell morphology, phase-contrast microscope; type: cell-based, human; conditions: 10 μM, 24 h
Excerpt: For morphological observations, cells were visualized and photographed using a phase-contrast microscope equipped with a digital camera (Leica Microsystems, Wetzlar, Germany)^21.

MDA-MB-468 = assay: Cell viability, MDA-MB-468 breast cancer cells; type: cell-based; conditions: Homo sapiens; MDA-MB-468 (Triple negative), treated for 24 h
Method: Cell viability was evaluated by measuring the reduction in MTT to yield blue formazan. Cells were cultured in 96-well plates, allowed to attach overnight, and then treated with compounds. After treatment, MTT solution (1 mg/ml) was added to each well, and plates were incubated for another 4 h. Medium were removed, blue formazan was dissolved in DMSO, and the absorbance was read at 570 nm^20.

MDA-MB-231 cells [3] = assay: Apoptosis analysis (annexin V/propidium iodide); type: cell-based, human; conditions: 5 μM, 24 and 48 h
Excerpt: After treatments, cells were harvested and stained with annexin V and propidium iodide using the Annexin V: FITC Apoptosis Detection Kit II (BD Biosciences) and subjected to flow cytometry (FACScalibur; Becton-Dickinson, Mountain View, Calif., USA). The percentages of apoptotic cells were quantified with CellQuest software (Becton-Dickinson)^24.

Structure (SMILES): COc1cc(/C=C/C(=O)/C=C(O)/C=C/c2ccc(OC(=O)C(C)(CO)CO)c(OC)c2)ccc1OC(=O)C(C)(CO)CO [Compound 21a, ((1E,3Z,6E)-3-Hydroxy-5-oxohepta-1,3,6-triene-1,7-diyl)bis(2-methoxy-4,1-phenylene) bis(3-hydroxy-2-(hydroxymethyl)-2-methylpropenoate)]
- log2 (Ratio) LRRC45 (MDA-MB-231 cells [1]; mRNA, MDA-MB-231 cells, 24-h treatment, ID PH_hs_0027863): −2.718
- log2 (Ratio) ABL2 (MDA-MB-231 cells [1]; mRNA, MDA-MB-231 cells, 24-h treatment, ID PH_hs_0027902): 4.287
- log2 (Ratio) CENPI (MDA-MB-231 cells [1]; mRNA, MDA-MB-231 cells, 24-h treatment, ID PH_hs_0028200): −2.537
- log2 (Ratio) CCDC85B (MDA-MB-231 cells [1]; mRNA, MDA-MB-231 cells, 24-h treatment, ID PH_hs_0028915): −2.622
- log2 (Ratio) TCF21 (MDA-MB-231 cells [1]; mRNA, MDA-MB-231 cells, 24-h treatment, ID PH_hs_0028987): 2.769
- log2 (Ratio) AKR1C1 (MDA-MB-231 cells [1]; mRNA, MDA-MB-231 cells, 24-h treatment, ID PH_hs_0029660): 2.695
- log2 (Ratio) FANCF (MDA-MB-231 cells [1]; mRNA, MDA-MB-231 cells, 24-h treatment, ID PH_hs_0030800): −2.553
- log2 (Ratio) NFKBIB (MDA-MB-231 cells [1]; mRNA, MDA-MB-231 cells, 24-h treatment, ID PH_hs_0030976): 2.516
- log2 (Ratio) VIMP (MDA-MB-231 cells [1]; mRNA, MDA-MB-231 cells, 24-h treatment, ID PH_hs_0031143): 3.213
- log2 (Ratio) GNG2 (MDA-MB-231 cells [1]; mRNA, MDA-MB-231 cells, 24-h treatment, ID PH_hs_0031540): −2.661
- log2 (Ratio) CCL26 (MDA-MB-231 cells [1]; mRNA, MDA-MB-231 cells, 24-h treatment, ID PH_hs_0031719): 4.147
- log2 (Ratio) SIK1 (MDA-MB-231 cells [1]; mRNA, MDA-MB-231 cells, 24-h treatment, ID PH_hs_0033027): 2.548
- log2 (Ratio) DDIT3 (MDA-MB-231 cells [1]; mRNA, MDA-MB-231 cells, 24-h treatment, ID PH_hs_0033101): 3.556
- log2 (Ratio) OMA1 (MDA-MB-231 cells [1]; mRNA, MDA-MB-231 cells, 24-h treatment, ID PH_hs_0035337): −2.514
- log2 (Ratio) SAT1 (MDA-MB-231 cells [1]; mRNA, MDA-MB-231 cells, 24-h treatment, ID PH_hs_0035404): 3.764
- log2 (Ratio) AKR1C3|AKR1C1 (MDA-MB-231 cells [1]; mRNA, MDA-MB-231 cells, 24-h treatment, ID PH_hs_0035466): 2.962
- log2 (Ratio) ETV1 (MDA-MB-231 cells [1]; mRNA, MDA-MB-231 cells, 24-h treatment, ID PH_hs_0035609): −2.788
- log2 (Ratio) RC3H1 (MDA-MB-231 cells [1]; mRNA, MDA-MB-231 cells, 24-h treatment, ID PH_hs_0035614): 3.063
- log2 (Ratio) GDF15 (MDA-MB-231 cells [1]; mRNA, MDA-MB-231 cells, 24-h treatment, ID PH_hs_0035765): 3.427
- log2 (Ratio) PIF1 (MDA-MB-231 cells [1]; mRNA, MDA-MB-231 cells, 24-h treatment, ID PH_hs_0036878): −2.714
- log2 (Ratio) MALAT1 (MDA-MB-231 cells [1]; mRNA, MDA-MB-231 cells, 24-h treatment, ID PH_hs_0037242): 2.683
- log2 (Ratio) MALAT1 (MDA-MB-231 cells [1]; mRNA, MDA-MB-231 cells, 24-h treatment, ID PH_hs_0037472): 3.48
- log2 (Ratio) LOC100134259 (MDA-MB-231 cells [1]; mRNA, MDA-MB-231 cells, 24-h treatment, ID PH_hs_0038982): −2.503
- log2 (Ratio) MXD3 (MDA-MB-231 cells [1]; mRNA, MDA-MB-231 cells, 24-h treatment, ID PH_hs_0040619): −2.891
- log2 (Ratio) DUSP5 (MDA-MB-231 cells [1]; mRNA, MDA-MB-231 cells, 24-h treatment, ID PH_hs_0042225): 2.541
- log2 (Ratio) MT4 (MDA-MB-231 cells [1]; mRNA, MDA-MB-231 cells, 24-h treatment, ID PH_hs_0042334): 3.931
- log2 (Ratio) DNAJB1 (MDA-MB-231 cells [1]; mRNA, MDA-MB-231 cells, 24-h treatment, ID PH_hs_0042409): 2.767
- log2 (Ratio) HMGCS1 (MDA-MB-231 cells [1]; mRNA, MDA-MB-231 cells, 24-h treatment, ID PH_hs_0043719): 2.895
- log2 (Ratio) CLK1 (MDA-MB-231 cells [1]; mRNA, MDA-MB-231 cells, 24-h treatment, ID PH_hs_0044272): 2.829
- log2 (Ratio) HSPA1A (MDA-MB-231 cells [1]; mRNA, MDA-MB-231 cells, 24-h treatment, ID PH_hs_0044921): 2.535
- log2 (Ratio) EID3 (MDA-MB-231 cells [1]; mRNA, MDA-MB-231 cells, 24-h treatment, ID PH_hs_0045501): 4.039
- log2 (Ratio) SLC6A6 (MDA-MB-231 cells [1]; mRNA, MDA-MB-231 cells, 24-h treatment, ID PH_hs_0045838): 2.838
- log2 (Ratio) RN7SK (MDA-MB-231 cells [1]; mRNA, MDA-MB-231 cells, 24-h treatment, ID PH_hs_0046245): 4.763
- log2 (Ratio) MARCKS (MDA-MB-231 cells [1]; mRNA, MDA-MB-231 cells, 24-h treatment, ID PH_hs_0047352): −3.043
- log2 (Ratio) PDP1 (MDA-MB-231 cells [1]; mRNA, MDA-MB-231 cells, 24-h treatment, ID PH_hs_0047571): −2.547
- log2 (Ratio) ARF6 (MDA-MB-231 cells [1]; mRNA, MDA-MB-231 cells, 24-h treatment, ID PH_hs_0047697): −2.688
- log2 (Ratio) PHLDA1 (MDA-MB-231 cells [1]; mRNA, MDA-MB-231 cells, 24-h treatment, ID PH_hs_0047965): −2.959
- log2 (Ratio) MYCT1 (MDA-MB-231 cells [1]; mRNA, MDA-MB-231 cells, 24-h treatment, ID PH_hs_0048553): 3.866
- log2 (Ratio) FKBP4 (MDA-MB-231 cells [1]; mRNA, MDA-MB-231 cells, 24-h treatment, ID PH_hs_0048881): 2.809
- log2 (Ratio) NRP1 (MDA-MB-231 cells [1]; mRNA, MDA-MB-231 cells, 24-h treatment, ID PH_hs_0048993): −2.677
- log2 (Ratio) GPR39 (MDA-MB-231 cells [1]; mRNA, MDA-MB-231 cells, 24-h treatment, ID PH_hs_0049449): −2.73
- log2 (Ratio) HSPA6 (MDA-MB-231 cells [1]; mRNA, MDA-MB-231 cells, 24-h treatment, ID PH_hs_0049600): 6.644
- log2 (Ratio) ZNF121 (MDA-MB-231 cells [1]; mRNA, MDA-MB-231 cells, 24-h treatment, ID PH_hs_0060053): 2.575
- log2 (Ratio) TRIB3 (MDA-MB-231 cells [1]; mRNA, MDA-MB-231 cells, 24-h treatment, ID PH_hs_0060828): 2.735
- log2 (Ratio) ZBTB21 (MDA-MB-231 cells [1]; mRNA, MDA-MB-231 cells, 24-h treatment, ID PH_hs_0061012): 2.731
- log2 (Ratio) AKR1C1|LOC101060798 (MDA-MB-231 cells [1]; mRNA, MDA-MB-231 cells, 24-h treatment, ID PH_hs_0062199): 3.357
- log2 (Ratio) CDKN1A (MDA-MB-231 cells [1]; mRNA, MDA-MB-231 cells, 24-h treatment, ID PH_hs_p061784): 2.967
- genes expressed at least by 2.5 folds compared with untreated control (MDA-MB-231 cells [1]; total): 97 genes
- cell morphology (MDA-MB-231 cells [2]): caused breast cancer cell apoptosis and autophagy
- IC50 (MDA-MB-468): 6.13 ± 0.51 µM
- population of annexin V-positive cells (MDA-MB-231 cells [3]): significantly increased
